# Results taken from patent US20150094321A1, “COMBINATION” (GlaxoSmithKline LLC, priority 2009, published 2015).
# Columns and labels:
# HPAC tumor xenografts = test: Growth of human pancreatic tumor xenografts in SCID mice; assay type: in vivo; settings: for % Tumor Growth Inhibition: QD; for tumor growth inhibition: HPAC
# Description: (§1) Female SCID mice were implanted subcutaneously with HPAC or Capan2 tumor cells (human pancreatic carcinoma harboring mutant KRAS gene). When the tumor volume reached ˜150 mm^3, mice were block randomized to different treatment groups (n=8 mice/group). Mice received AKT inhibitor, Compound B, at 10 or 30 mg/kg, once daily (QD). MEK inhibitor, Compound A, was administered at 0.1, 0.3 and 1.0 mg/kg, once daily (QD) alone or at 0.1 and 0.3 mg/kg once daily in combination with AKT inhibitor. Mice were weighed and tumors measured by calipers twice weekly. Treatment was continued till the tumor volume reached >1000 mm^3. Tumor volumes were calculated using the formula: tumor volume=(Length×Width^2)/2. The percentage of tumor growth inhibition was calculated on each day of tumor measurement using the formula: 100×[1−(average growth of the compound-treated tumors/average growth of vehicle-treated control tumors)]. Data is plotted as mean±sem for tumor volume for each group.
# Capan2 tumor xenografts = test: as above; assay type: in vivo; settings: for % Tumor Growth Inhibition: Capan2-D01, QD, Treatment Duration 56; for tumor growth inhibition: Capan2
# Description: as §1
# MiaPaCa = test: Cell line proliferation study; assay type: cell-based, human; settings: for IC50: Homo sapiens, MIA PaCa-2, pancreas, 72 hours, read-out: gIC50; for Ymin/T0: pancreas
# Description: (§2) In a separate study, combination drug tests with Compounds A and B were conducted using a panel of cell lines from human colon cancers (n=26), lung cancers (n=15) and pancreatic cancers (n=6). Cell lines were obtained from commercial vendors (ATCC and DSMZ). Cell lines were grown in RPMI-1640 supplemented with 2 mM glutamine, 1 mM sodium pyruvate and 10% fetal bovine serum (except for Capan-1 and HuP-T4 which were grown with 20% fetal bovine serum) and maintained at 37° C. and 5% CO2 in a humid incubator. Assays were performed in 384 well microtiter plates with optimum seeding densities for each cell line.
# (§3) The test compounds were prepared as 10 mM stocks in 100% DMSO. Further dilutions of the compounds were made in DMSO. Compound A was diluted horizontally in a separate 96 well microtiter plate in rows D-G using a 3-fold dilution series for 10 dilution points. Compound B was similarly diluted horizontally in a 96 well microtiter plate in rows B-E using a 3-fold dilution series for 10 dilution points.
# (§4) The two compounds were combined using equal volumes from each drug plate into cell culture media. […] Both Compound A and Compound B were individually titrated in rows B and C (for Compound B) and rows F and G (for Compound A) of the merged drug plate.
# (§5) A 1:10 dilution of the drugs was performed in cell culture media prior to addition to the cells.
# (§6) The final concentration range for the test compounds was 250 to 0.013 nM for Compound A and 1000 to […] for Compound B. The positive control consisted of culture media with DMSO at 0.1% and cells. The negative control consisted of culture media with DMSO at 0.1%. The cell lines were incubated at 37° C., 5% CO2 in humid air for 72 hours. Cell proliferation was measured using the CellTiter Glo (Promega) reagent according to the manufacturer's protocol. The plates are treated with CellTiter Glo solution and are analyzed for RLU (relative light units) using a Molecular Devices SpectraMax M5 plate reader.
# (§7) The percent intensity values were used in model 205 of XLfit (IDBS, Inc.) in Microsoft Excel to calculate gIC50 values using a 4 parameter logistical fit. The midpoint of the growth window (the gIC50) falls half way between the number of cells at the time of compound addition (T=0) and the growth of control cells treated with DMSO at 72 hrs. The number of cells at time zero (T0) is divided from the intensity value at the bottom of the response curve (Ymin) to generate a measure for cell death (Ymin/T0). A value below 1 for Ymin/T0 indicates stronger potency to induce cell death with the treatment when compared to higher values.
# (§8) 1. Excess over Highest Single Agent (EOHSA)—This was calculated as described above (Borisy et al, 2003; FDA 21 CFR 300.50) 2. Bliss synergy—A second criterion often used to determine combination synergy is evaluating the excess inhibition over Bliss independence or “additivity” (Bliss and Mexico, 1939). The model assumes a combined response of the two compounds independently using the following:
# (§9) Where Ea is the effect (or percent inhibition) of Compound A and Eb is the effect of Compound B. The resulting effect of the combination of the two compounds is compared to their predicted additivity by Bliss and a synergy score is generated for each dose along the response curve. 3. Combination Index (CI)—A third criterion traditionally used for the evaluation of synergy is Combination Index (CI) derived from the Chou and Talalay (1984). The following equation is a model used for compounds that behave with different mechanisms of action (mutually non-exclusive formula). This was calculated as described above.
# (§10) For EOHSA and Bliss Synergy measures, a score is generated for each dose along the response curve. These scores reflect the percentage over the highest agent (EOHSA) or percentage greater than Bliss additivity, depending on which metric is being interpreted. […]
# SW948 = test: Cell line proliferation study; assay type: cell-based, human; settings: SW948, colon; for IC50: Homo sapiens, 72 hours, read-out: gIC50
# Description: as §2, §3, §4, §5, §6, §7, §8, §9, §10
# LS1034 = test: Cell line proliferation study; assay type: cell-based, human; settings: LS1034, colon; for IC50: Homo sapiens, LS-1034, 72 hours, read-out: gIC50
# Description: as §2, §3, §4, §5, §6, §7, §8, §9, §10
# NCIH23 = test: Cell line proliferation study; assay type: cell-based, human; settings: NCIH23, lung; for IC50: Homo sapiens, NCI-H23, 72 hours, read-out: gIC50
# Description: as §2, §3, §4, §5, §6
# as §7, with “values. […]” for “values.”
# A549 = test: Cell line proliferation study; assay type: cell-based, human; settings: A549, lung; for IC50: Homo sapiens, 72 hours, read-out: gIC50
# Description: as §2, §3, §4, §5, §6
# as §7, with “values. […]” for “values.”
# DLD1 = test: Cell line proliferation study; assay type: cell-based, human; settings: DLD1, colon; for IC50: Homo sapiens, DLD-1, 72 hours, read-out: gIC50
# Description: as §2, §3, §4, §5, §6
# as §7, with “values. […]” for “values.”
IC50 (MiaPaCa) [nM],IC50 (SW948) [nM],IC50 (A549) [nM],IC50 (DLD1) [nM],SMILES,Ymin/T0 (MiaPaCa),Ymin/T0 (SW948),IC50 (LS1034) [nM],Ymin/T0 (LS1034),IC50 (NCIH23) [nM],Ymin/T0 (NCIH23),Ymin/T0 (A549),Ymin/T0 (DLD1),also measured
23.5,185,12.9,342,"CC(=O)Nc1cccc(-n2c(=O)n(C3CC3)c(=O)c3c(Nc4ccc(I)cc4F)n(C)c(=O)c(C)c32)c1 [Compound A, N-{3-[3-cyclopropyl-5-(2-fluoro-4-iodo-phenylamino)-6,8-dimethyl-2,4,7-trioxo-3,4,6,7-tetrahydro-2H-pyrido[4,3-d]pyrimidin-1-yl]phenyl}acetamide]",25.0,27.87,37,2.87,> 250,36.3,15.9,397,"% Tumor Growth Inhibition (HPAC tumor xenografts; HPAC-D01, Compound A 0.1 mg/kg po, Treatment Duration 75): 38%; % Tumor Growth Inhibition (HPAC tumor xenografts; HPAC-D01, Compound A 0.3 mg/kg po, Treatment Duration 75): 60%; % Tumor Growth Inhibition (HPAC tumor xenografts; HPAC-D01, Compound A 1 mg/kg po, Treatment Duration 75): 91%; % Tumor Growth Inhibition (HPAC tumor xenografts; HPAC-D02, Compound A 0.1 mg/kg po, Treatment Duration 74): 41%; % Tumor Growth Inhibition (HPAC tumor xenografts; HPAC-D02, Compound A 0.3 mg/kg po, Treatment Duration 74): 65%; % Tumor Growth Inhibition (HPAC tumor xenografts; HPAC-D02, Compound A 1 mg/kg po, Treatment Duration 74): 89%; tumor growth inhibition (HPAC tumor xenografts; 0.1 mg/kg QD): ~40%; tumor growth inhibition (HPAC tumor xenografts; 0.3 mg/kg QD): ~60%; tumor growth inhibition (HPAC tumor xenografts; 1 mg/kg QD): ~90%; % Tumor Growth Inhibition (Capan2 tumor xenografts; Compound A 0.1 mg/kg po): 74%; % Tumor Growth Inhibition (Capan2 tumor xenografts; Compound A 0.3 mg/kg po): 90%; % Tumor Growth Inhibition (Capan2 tumor xenografts; Compound A 1 mg/kg po): 104%; tumor growth inhibition (Capan2 tumor xenografts; 0.1 mg/kg): 70%; tumor growth inhibition (Capan2 tumor xenografts; 0.3 mg/kg): 87%; tumor growth inhibition (Capan2 tumor xenografts; 1.0 mg/kg): 104%"
> 1000,609,> 1000,> 1000,"Cn1ncc(Cl)c1-c1cc(C(=O)N[C@H](CN)Cc2ccc(F)c(F)c2)oc1Cl [Compound B, N-{(1S)-2-amino-1-[(3,4-difluorophenyl)methyl]ethyl}-5-chloro-4-(4-chloro-1-methyl-1H-pyrazol-5-yl)-2-furancarboxamide]",0.7,20.46,> 1000,−0.67,> 1000,41.5,32.7,29.0,"% Tumor Growth Inhibition (HPAC tumor xenografts; HPAC-D01, Compound B 10 mg/kg po, Treatment Duration 75): 11%; % Tumor Growth Inhibition (HPAC tumor xenografts; HPAC-D01, Compound B 30 mg/kg po, Treatment Duration 75): 40%; % Tumor Growth Inhibition (HPAC tumor xenografts; HPAC-D02, Compound B 10 mg/kg po, Treatment Duration 74): 15%; % Tumor Growth Inhibition (HPAC tumor xenografts; HPAC-D02, Compound B 30 mg/kg po, Treatment Duration 74): 31%; tumor growth inhibition (HPAC tumor xenografts; 10 mg/kg QD, two independent studies): 11-15%; tumor growth inhibition (HPAC tumor xenografts; 30 mg/kg QD, two independent studies): 31-40%; % Tumor Growth Inhibition (Capan2 tumor xenografts; Compound B 10 mg/kg po): 22%; % Tumor Growth Inhibition (Capan2 tumor xenografts; Compound B 30 mg/kg po): 26%; tumor growth inhibition (Capan2 tumor xenografts; at both 10 and 30 mg/kg doses): 27-30%"
